Experiment: xn = mol fraction of the nth substance listed

C=C(C)C(=O)OC + CC(C)CO
viscosity [mPa·s], 101.3 kPa
Settings | 298.15 K | 308.15 K
x1 = 0.0547 | 2.74 | 2.077
x1 = 0.1398 | 2.067 | 1.621
x1 = 0.2311 | 1.576 | 1.274
x1 = 0.33 | 1.22 | 1.012
x1 = 0.4577 | 0.927 | 0.788
x1 = 0.5037 | 0.852 | 0.73
x1 = 0.5427 | 0.799 | 0.687
x1 = 0.6552 | 0.686 | 0.595
x1 = 0.7288 | 0.638 | 0.553
x1 = 0.8409 | 0.594 | 0.512
x1 = 0.9341 | 0.581 | 0.495

CC(N)(CO)CO + O
viscosity [mPa·s], 101.3 kPa
Settings | 303.15 K | 313.15 K | 323.15 K
x1 = 0.019 | 1.127 | 0.9018 | 0.7417
x1 = 0.041 | 1.683 | 1.307 | 1.045
x1 = 0.068 | 2.681 | 1.999 | 1.567

CCCC[n+]1ccn(C)c1.O=C([O-])C(F)(F)F + ClC(Cl)Cl
Settings | viscosity [mPa·s]
298.15 K, 101 kPa, x2 = 0.6467 | 9.74

CC1(c2ccccc2)OC1C#N (configuration not stated) + ClC(Cl)(Cl)Cl
101 kPa, x1 = 0.024
Settings | viscosity [mPa·s]
293.15 K | 1.041
298.15 K | 0.964
303.15 K | 0.902
313.15 K | 0.8
323.15 K | 0.723

CC(O)CNCC(C)O (configuration not stated) + O
viscosity [mPa·s]
Settings | 293.15 K | 298.15 K | 303.15 K | 308.15 K | 313.15 K | 318.15 K | 323.15 K
101 kPa, x1 = 0.023 | – | – | – | – | – | 1.095 | –
101 kPa, x1 = 0.03 | – | – | – | 1.695 | – | – | –
101.3 kPa, x1 = 0.0071 | 1.261 | 1.097 | 0.958 | 0.834 | 0.738 | – | 0.597
101.3 kPa, x1 = 0.0148 | 1.61 | 1.37 | 1.211 | 1.046 | 0.914 | – | 0.775
101.3 kPa, x1 = 0.0329 | 2.803 | 2.363 | 2.08 | 1.803 | 1.54 | – | 1.2

COc1ccccc1C + CCCCCOC(C)=O
Settings | viscosity [mPa·s]
298.15 K, 101 kPa, x1 = 0.5 | 0.8659

C=C(C)C(=O)OC + Cc1ccccc1
303.15 K, 101 kPa
Settings | viscosity [mPa·s]
x1 = 0.1041 | 0.5201
x1 = 0.2049 | 0.5187
x1 = 0.4069 | 0.5163
x1 = 0.5046 | 0.5155
x1 = 0.6068 | 0.5148
x1 = 0.798 | 0.5141
x1 = 0.896 | 0.5141

CCCCCCCCCCCC(=O)[O-].[Na+] + CCCCCCCC(=O)O
100 kPa, x1 = 0.2
Settings | viscosity [mPa·s]
293.15 K | 60.29
298.15 K | 47.97
303.15 K | 38.68
308.15 K | 31.58
313.15 K | 26.09
318.15 K | 21.79
323.15 K | 18.38

C=C(C)C(=O)OC + CC#N
viscosity [mPa·s], 101 kPa
Settings | 298.15 K | 303.15 K | 308.15 K | 313.15 K | 318.15 K
x2 = 0.0688 | 0.5536 | 0.5171 | 0.4878 | 0.4643 | 0.4465
x2 = 0.1376 | 0.5439 | 0.5091 | 0.4811 | 0.4585 | 0.4413
x2 = 0.1957 | 0.5346 | 0.5013 | 0.4745 | 0.4526 | 0.4359
x2 = 0.2716 | 0.5214 | 0.4899 | 0.4643 | 0.4435 | 0.4275
x2 = 0.3344 | 0.5094 | 0.4795 | 0.455 | 0.435 | 0.4194
x2 = 0.4135 | 0.4932 | 0.4651 | 0.442 | 0.423 | 0.4079
x2 = 0.4916 | 0.4761 | 0.4498 | 0.4281 | 0.41 | 0.3954
x2 = 0.5649 | 0.4592 | 0.4344 | 0.4138 | 0.3967 | 0.3825
x2 = 0.6386 | 0.4413 | 0.4183 | 0.3988 | 0.3825 | 0.3687
x2 = 0.7084 | 0.4238 | 0.4023 | 0.3839 | 0.3683 | 0.3549
x2 = 0.7927 | 0.402 | 0.3823 | 0.3652 | 0.3505 | 0.3375
x2 = 0.855 | 0.3855 | 0.3672 | 0.351 | 0.3367 | 0.324
x2 = 0.9073 | 0.3714 | 0.3541 | 0.3387 | 0.3249 | 0.3123
x2 = 0.9497 | 0.3599 | 0.3435 | 0.3286 | 0.3152 | 0.3028
